# In publication PMC10786919, “Design-rules for stapled peptides with in vivo activity and their application to Mdm2/X antagonists” (Nature Communications, 2024):
# Read-outs that look alike come from different tables or passages of the source. Positions of bridges follow the written chain, without caps; N, C: chain ends. Non-standard residues stand in square brackets, D forms with d. Residues, ends and D or L forms follow the SMILES beside them. ξ: configuration not given here. Lys(N3) = [N-]=[N+]=NCCCC[C@H](N)C(=O)O; R8 = C=CCCCCCC[C@@](C)(N)C(=O)O; ξαMeF = CC(N)(Cc1ccccc1)C(=O)O; Cba = N[C@@H](CC1CCC1)C(=O)O; S5 = C=CCCC[C@](C)(N)C(=O)O; hSer = N[C@@H](CCO)C(=O)O; Aib = CC(C)(N)C(=O)O; βAla = NCCC(=O)O
# Experiments:
# [1] = Experimental LogD (partition coefficient); conditions: for logD: not stated, Partition Coeff LogD
# Ca Ski cell line = conditions: 72 h
# Procedure: (§1) The medium for CellSensor™ p53RE-bla HCT-116 cells was McCoy’s 5 A Medium (GIBCO16600-002) supplied with 10% FBS (Hyclone, SH30406.05), 100 U/100ug/ml of Pen/Strep (SolarBio, P1400) and 5 μg/ml of blasticidin (GIBCO, A11139). The medium for Ca Ski cells was RPMI1640 (Hyclone, SH3080901B) supplied with 10% FBS and 100 U/100ug/ml of Pen/Strep. All cells were kept in humidified incubators with 5% CO2 at 37 °C. Culture media was changed after one day of subculturing and cells were passed again when there was 70–80% confluence. One day before the assay, the cells were trypsinized, collected, counted and viability was determined. […] The plates were kept in humidified incubators with 5% CO2 at 37 °C overnight. Compounds were prepared as a 10 point, 3x serial dilution in 100% DMSO, starting from a top concentration of 10 mM. […] At the end of the incubation the assay plate was equilibrated at room temperature for approximately 30 minutes prior to the addition of 25 uL of CellTiter-Glo® 2.0 Reagent. The assay plate was mixed for 2 minutes on an orbital shaker to induce cell lysis. Next, the plate was incubated at room temperature for 10 minutes to stabilize the luminescent signal prior to recording the luminescence on a plate reader.
# [2] = tested on: CellSensor p53RE-bla HCT-116 Cell Line; conditions: 72 h
# Procedure: as §1
# [3] = Lactate dehydrogenase (LDH) release assay; format: cell-based
# Method in brief: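 Geometric means of at least three independent biological runs are given for LDH release measured in HCT116 cells stably expressing a p53-driven β-lactamase reporter. Plating density was 8000 cells/well; DMSO in wells was 0.5%.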
# [4] = Solubility assay (kinetic solubility, PBS pH 7); format: physicochemical
# Method in brief: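 Next, measure peak areas of sample and standard. Finally, multiply their ratio by the standard concentration to obtain solubility (µM).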
# in vitro = conditions: Nanoclick permeability assay EC50
# Method in brief: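 Azido-peptide permeability was read as loss of NanoBRET signal (donor 450 nm, acceptor 610 nm) after adding NanoBret618-azide at 10 μM final.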
# [5] = pH 7, aqueous buffer, kinetic from dmso stock, pH 7, PBS, read-out: Solubility
SMILES,logD [1],EC50 (Ca Ski cell line) [µM],EC50 [2] [µM],EC50 ([3]; LDH: Cytotoxicity assay: EC50) [µM],"solubility kinetic ([4]; pH 7, Solubility) [µM]","solubility kinetic [4, 5] [µM]",cell entry EC50 (in vitro) [µM],EC50 ([3]; LDH: Cytotoxicity assay EC50) [µM],Partition Coeff LogD [1],"Solubility ([4]; pH 7, PBS)"
CC(=O)N[C@@H](CCCCN=[N+]=[N-])C(=O)NCCC(=O)N[C@@H](CC(C)C)C(=O)N[C@H](C(=O)N[C@@H](Cc1ccccc1)C(=O)N[C@]1(C)CCCCCCC=CCCC[C@@](C)(C(=O)N[C@@H](C)C(=O)N[C@H](C)C(=O)N[C@@H](C)C(=O)N[C@H](C)C(=O)N[C@@H](C)C(=O)N[C@H](C)C(N)=O)NC(=O)[C@H](CC2CCC2)NC(=O)[C@H](CCC(N)=O)NC(=O)[C@H](C)NC(=O)[C@H](Cc2c[nH]c3ccccc23)NC(=O)[C@H](Cc2ccc(O)cc2)NC(=O)[C@H](CCC(=O)O)NC1=O)[C@@H](C)O [MP-056] (Ac-[Lys(N3)][βAla]LTF[R8]EYWAQ[Cba][S5]A[dA]A[dA]A[dA]-NH2; staple 6-13),2.83,> 49.8,3.3,> 50.7,157,147,5.21,–,–,–
CC(=O)N[C@@H](CCCCN=[N+]=[N-])C(=O)NCCC(=O)N[C@@H](CC(C)C)C(=O)N[C@H](C(=O)N[C@@H](Cc1ccccc1)C(=O)N[C@]1(C)CCCCCCC=CCCC[C@@](C)(C(=O)N[C@@H](C)C(=O)N[C@@H](C)C(=O)N[C@@H](Cc2ccccc2)C(=O)N[C@@H](C)C(=O)N[C@@H](C)C(=O)NC(C)(Cc2ccccc2)C(N)=O)NC(=O)[C@H](CC2CCC2)NC(=O)[C@H](CCC(N)=O)NC(=O)[C@H](C)NC(=O)[C@H](Cc2c[nH]c3ccccc23)NC(=O)[C@H](Cc2ccc(O)cc2)NC(=O)[C@H](CCC(=O)O)NC1=O)[C@@H](C)O (some centres unmarked) [MP-288] (Ac-[Lys(N3)][βAla]LTF[R8]EYWAQ[Cba][S5]AAFAA[ξαMeF]-NH2; staple 6-13),4.11,> 49.8,2.74,> 50.7,–,12,1.58,–,–,–
CC(=O)N[C@@H](CCCCN=[N+]=[N-])C(=O)NCCC(=O)N[C@@H](CC(C)C)C(=O)N[C@H](C(=O)N[C@@H](Cc1ccccc1)C(=O)N[C@]1(C)CCCCCCC=CCCC[C@@](C)(C(=O)N[C@@H](C)C(=O)N[C@@H](C)C(=O)N[C@H](C)C(=O)N[C@@H](C)C(=O)N[C@@H](C)C(=O)N[C@H](C)C(N)=O)NC(=O)[C@H](CC2CCC2)NC(=O)[C@H](CCC(N)=O)NC(=O)[C@H](C)NC(=O)[C@H](Cc2c[nH]c3ccccc23)NC(=O)[C@H](Cc2ccc(O)cc2)NC(=O)[C@H](CCC(=O)O)NC1=O)[C@@H](C)O [MP-425] (Ac-[Lys(N3)][βAla]LTF[R8]EYWAQ[Cba][S5]AA[dA]AA[dA]-NH2; staple 6-13),–,47.3,1.27,–,–,185,–,> 50.7,–,–
CC(=O)N[C@@H](CCCCN=[N+]=[N-])C(=O)NCCC(=O)N[C@@H](CC(C)C)C(=O)N[C@H](C(=O)N[C@@H](Cc1ccccc1)C(=O)N[C@]1(C)CCCCCCC=CCCC[C@@](C)(C(=O)N[C@@H](C)C(=O)N[C@@H](C)C(=O)N[C@@H](C)C(=O)N[C@@H](C)C(=O)N[C@@H](C)C(N)=O)NC(=O)[C@H](CC2CCC2)NC(=O)[C@H](CCC(N)=O)NC(=O)[C@H](C)NC(=O)[C@H](Cc2c[nH]c3ccccc23)NC(=O)[C@H](Cc2ccc(O)cc2)NC(=O)[C@H](CCC(=O)O)NC1=O)[C@@H](C)O [MP-685] (Ac-[Lys(N3)][βAla]LTF[R8]EYWAQ[Cba][S5]AAAAA-NH2; staple 6-13),–,22.8,9.55,–,–,–,> 10,> 50.7,–,–
CC(=O)N[C@@H](CCCCN=[N+]=[N-])C(=O)NCCC(=O)N[C@@H](CC(C)C)C(=O)N[C@H](C(=O)N[C@@H](Cc1ccccc1)C(=O)N[C@]1(C)CCCCCCC=CCCC[C@@](C)(C(=O)N[C@@H](C)C(=O)N[C@@H](C)C(=O)N[C@@H](C)C(=O)N[C@@H](C)C(=O)N[C@@H](C)C(=O)N[C@@H](C)C(=O)N[C@@H](C)C(=O)N[C@@H](C)C(=O)N[C@@H](C)C(N)=O)NC(=O)[C@H](CC2CCC2)NC(=O)[C@H](CCC(N)=O)NC(=O)[C@H](C)NC(=O)[C@H](Cc2c[nH]c3ccccc23)NC(=O)[C@H](Cc2ccc(O)cc2)NC(=O)[C@H](CCC(=O)O)NC1=O)[C@@H](C)O [MP-759] (Ac-[Lys(N3)][βAla]LTF[R8]EYWAQ[Cba][S5]AAAAAAAAA-NH2; staple 6-13),3.49,25.9,2.44,> 50.7,–,15,3.41,–,–,–
CC(=O)N[C@@H](CCCCN=[N+]=[N-])C(=O)NCCC(=O)N[C@@H](CC(C)C)C(=O)N[C@H](C(=O)N[C@@H](Cc1ccccc1)C(=O)N[C@]1(C)CCCCCCC=CCCC[C@@](C)(C(=O)N[C@@H](C)C(=O)N[C@@H](C)C(=O)N[C@@H](Cc2ccccc2)C(=O)NC(C)(C)C(=O)N[C@@H](C)C(=O)N[C@@H](C)C(N)=O)NC(=O)[C@H](CC2CCC2)NC(=O)[C@H](CCC(N)=O)NC(=O)[C@H](C)NC(=O)[C@H](Cc2c[nH]c3ccccc23)NC(=O)[C@H](Cc2ccc(O)cc2)NC(=O)[C@H](CCC(=O)O)NC1=O)[C@@H](C)O [MP-801] (Ac-[Lys(N3)][βAla]LTF[R8]EYWAQ[Cba][S5]AAF[Aib]AA-NH2; staple 6-13),–,19.1,4.58,–,–,–,4.71,–,Poorly Behaved,Poorly Behaved
CC(=O)N[C@@H](CCCCN=[N+]=[N-])C(=O)NCCC(=O)N[C@@H](CC(C)C)C(=O)N[C@H](C(=O)N[C@@H](Cc1ccccc1)C(=O)N[C@]1(C)CCCCCCC=CCCC[C@@](C)(C(=O)N[C@@H](C)C(=O)N[C@@H](CCO)C(=O)N[C@@H](C)C(=O)N[C@@H](C)C(=O)N[C@@H](C)C(=O)N[C@H](C)C(N)=O)NC(=O)[C@H](CC2CCC2)NC(=O)[C@H](CCC(N)=O)NC(=O)[C@H](C)NC(=O)[C@H](Cc2c[nH]c3ccccc23)NC(=O)[C@H](Cc2ccc(O)cc2)NC(=O)[C@H](CCC(=O)O)NC1=O)[C@@H](C)O [MP-831] (Ac-[Lys(N3)][βAla]LTF[R8]EYWAQ[Cba][S5]A[hSer]AAA[dA]-NH2; staple 6-13),3.13,> 49.8,0.428,–,–,175,> 10,> 50.7,–,–
CC(=O)N[C@@H](CCCCN=[N+]=[N-])C(=O)NCCC(=O)N[C@@H](CC(C)C)C(=O)N[C@H](C(=O)N[C@@H](Cc1ccccc1)C(=O)N[C@]1(C)CCCCCCC=CCCC[C@@](C)(C(=O)N[C@@H](CCC(=O)O)C(=O)N[C@@H](C)C(=O)N[C@@H](Cc2ccccc2)C(=O)N[C@@H](C)C(=O)N[C@@H](CCC(N)=O)C(=O)N[C@@H](Cc2ccccc2)C(N)=O)NC(=O)[C@H](CC2CCC2)NC(=O)[C@H](CCC(N)=O)NC(=O)[C@H](C)NC(=O)[C@H](Cc2c[nH]c3ccccc23)NC(=O)[C@H](Cc2ccc(O)cc2)NC(=O)[C@H](CCC(=O)O)NC1=O)[C@@H](C)O [MP-832] (Ac-[Lys(N3)][βAla]LTF[R8]EYWAQ[Cba][S5]EAFAQF-NH2; staple 6-13),3.01,22.3,4.17,–,–,157,4.88,> 50.7,–,–
CC(=O)N[C@@H](CCCCN=[N+]=[N-])C(=O)NCCC(=O)N[C@@H](CC(C)C)C(=O)N[C@H](C(=O)N[C@@H](Cc1ccccc1)C(=O)N[C@]1(C)CCCCCCC=CCCC[C@@](C)(C(=O)N[C@@H](C)C(=O)N[C@@H](C)C(=O)N[C@@H](C)C(=O)N[C@@H](C)C(=O)N[C@@H](C)C(=O)N[C@@H](CCC(=O)O)C(N)=O)NC(=O)[C@H](CC2CCC2)NC(=O)[C@H](CCC(N)=O)NC(=O)[C@H](C)NC(=O)[C@H](Cc2c[nH]c3ccccc23)NC(=O)[C@H](Cc2ccc(O)cc2)NC(=O)[C@H](CCC(=O)O)NC1=O)[C@@H](C)O [MP-836] (Ac-[Lys(N3)][βAla]LTF[R8]EYWAQ[Cba][S5]AAAAAE-NH2; staple 6-13),2.43,> 49.8,1.05,–,–,164,1.77,> 50.7,–,–
CC(=O)N[C@@H](CCCCN=[N+]=[N-])C(=O)NCCC(=O)N[C@@H](CC(C)C)C(=O)N[C@H](C(=O)N[C@@H](Cc1ccccc1)C(=O)N[C@]1(C)CCCCCCC=CCCC[C@@](C)(C(=O)N[C@@H](C)C(=O)N[C@@H](C)C(=O)N[C@@H](C)C(=O)N[C@@H](C)C(=O)N[C@@H](CCC(=O)O)C(=O)N[C@H](C)C(N)=O)NC(=O)[C@H](CC2CCC2)NC(=O)[C@H](CCC(N)=O)NC(=O)[C@H](C)NC(=O)[C@H](Cc2c[nH]c3ccccc23)NC(=O)[C@H](Cc2ccc(O)cc2)NC(=O)[C@H](CCC(=O)O)NC1=O)[C@@H](C)O [MP-837] (Ac-[Lys(N3)][βAla]LTF[R8]EYWAQ[Cba][S5]AAAAE[dA]-NH2; staple 6-13),2.53,> 49.8,0.66,–,–,160,1.52,> 50.7,–,–
